US20190046446A1, “APO-E MODIFIED LIPID NANOPARTICLES FOR DRUG DELIVERY TO TARGETED TISSUES AND THERAPEUTIC METHODS” (Eriochem USA, LLC, priority 2016, published 2019)
“And” between values parts separate entries of the source, which are not always exact repeats. Equal values may be shown once. Read-outs that look alike come from different tables or passages of the source.

Tests used:
human plasma proteins = conditions: cited from earlier work
[1] = Pharmacokinetics of Docetaxel in plasma of rabbits; format: in vivo, New Zealand rabbits; conditions: iv, 2.5 mg/kg DCX; for half-life: New Zealand, rabbit, 2.5 mg/kg
Method: Changes in plasma drug concentration reflect changes in drug concentrations at the receptor site, as well as in other tissues.
The formulations were administered intravenously at doses equivalent to 2.5 mg/kg of DCX in each. […] Blood samples were taken at 0.5, 2, 8, and 24 hours from each animal in Groups A and C, and at 1, 4, 12, and 32 hours for each animal in Groups B and D. Then, the samples were pre-treated for analysis—the proteins were precipitated with acetonitrile and then extracted with a solid phase (SPE), evaporated, and resuspended for analysis. […] Any adjustment of the experimental data was performed by weighted nonlinear regression of at least squares using a bi-exponential descriptive model.
For this study, kd and kel were interpreted as the first order apparent distribution and elimination constants, respectively, and C1 and C2 were the coefficients of the adjustment model.
From the estimated values of C1, kd, C2, and kel, the following pharmacokinetic parameters were calculated, as shown in Table 10 below.
Clearance (CI) refers to the volume of blood that has completely cleared of the drug/unit time when it passes through a clearing organ.

New Zealand rabbits [2] = assay: Blood counts (hemogram) in rabbits; conditions: iv, 3 cycles every 7 days;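 further: compound given into the marginal ear vein under ketamine-xylazine-acepromazine anesthesia, blood drawn from the ear central artery after sedation, seven samplings from one day before to day 20 after first dose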
Method: The intravenous administration was performed in the marginal ear vein and previously rabbits underwent anesthesia intramuscular injection by a combination of Ketamine-Xylazine-Acepromazine (2.4 mg/kg acepromazine, 48 mg/kg Ketamine and 5 mg/kg xylazine)
Blood samples were taken from the central artery of the ear, after sedation. A total of 7 samples were taken for each rabbit, and samples were taken a day before the first doses (−1), and on days 1, 6, 8, 13, 15 and 20 after the first dose.

[3] = tested on: PC3 (prostate cancer epithelial cells); assay: In vitro cytotoxicity assay (MTS), PC3; format: cell-based, human
Method: 50 μL of the cell suspensions were seeded in 96-well plates in duplicate with Dulbecco's basal medium plus 10% fetal bovine serum supplemented with 10% fetal bovine serum (FBS) for PC-3, and with DMEM/Ham's F12 medium containing 10% FBS, 1% 1-glutamine for A549 cell line. Both were maintained in culture for 24 hours. The cells were then treated with serial diluted concentrations of DCX starting from 100 nM and incubated for 48 hours. At the end of incubation, 20 μL/well of MTS/PMs solution (2 mL of MTS with 100 μL of PMS solution) were added. Then, plates were incubated at 37° C., 5% CO2 for 4 hours.
Absorbance values obtained from the in vitro cytotoxicity assay of DCX, Nano+DCX, and Nano+DCX+ApoE3 samples were plotted based on the DCX concentration employed, using OriginPro 8 software (ORIGINLAB Corporation, USA). The IC50 (nM) of each of the samples was determined at 50% of the maximum absorbance value obtained, corresponding to the value obtained for the growth control.

New Zealand rabbits [4] = assay: Hepatic toxicity (GGT and GOT determination); format: in vivo; conditions: iv, DCX 2.5 mg/kg or equivalent, 24 hours after inoculation
Method: The experiment was carried out using New Zealand rabbits kept in facilities under controlled environmental conditions (temperature of 22° C.+3° C.; 12-hour light/dark cycle) and with free access to food and water. Acclimatization was performed for a minimum of 10 days prior to the start of the experiment. Each animal weighted approximately 2.8 kg and was distributed into a group of 5 animals each.
Formulations were administered intravenously (in marginal ear vein) into rabbits that had previously been intravenously injected with a combination of Ketamine-Xylazine-Acepromazine. Amounts of Gamma glutamil transaminase (GGT) and glutamic-oxaloacetic transaminase (GOT) were determined in plasma of the rabbits 24 hours after inoculation with the formulation. The results of each sample were statistically analyzed with ANOVA and Duncan Test using SPSS 11.0.

[5] = in vivo; cited from earlier work
[6] = tested on: VERO (monkey kidney epithelial cells); assay: In vitro cytotoxicity assay (MTS), VERO; format: cell-based

Structure (SMILES): CC(=O)O[C@@]12CO[C@@H]1C[C@H](O)[C@@]1(C)C(=O)[C@H](O)C3=C(C)[C@@H](OC(=O)[C@H](O)[C@@H](NC(=O)OC(C)(C)C)c4ccccc4)C[C@@](O)([C@@H](OC(=O)c4ccccc4)[C@H]21)C3(C)C [TAXOTERE, Docetaxel]
- free Docetaxel (fu) (human plasma proteins; at 1.24 μM (1 μg/ml) plasma serum): 0.082 µM
- bound to plasma proteins (human plasma proteins; ultrafiltration at 37° C. and pH 7.4): > 98%
- half-life ([1]; read-out: t1/2e1: Elimination half-life (converted)): 1180 min
- half-life ([1]; read-out: t1/2d: Distribution half-life (converted)): 32.4 min
- ABC0-∞: Area under the curve from time zero to infinity [1]: 1152.0 ng·h/mL
- ABCex: Percentage of area under the curve extrapolated to infinity [1]: 26.0%
- ABCtz-∞: Area under the curve from the last sampling time to infinity [1]: 299.0 ng·h/mL
- C1: Coefficient of the first exponential term [1]: 295.1 ng/mL
- C2: Coefficient of the second exponential term [1]: 32.5 ng/mL
- Cz: Coefficient of last exponential term [1]: 10.52 ng/mL
- kd: first order apparent distribution constant [1]: 1.28 h⁻¹
- ke1: first order apparent elimination constant [1]: 0.035 h⁻¹
- Hematocrit (New Zealand rabbits [2]; Sample 1 (day -1)): 40%
- MCH (New Zealand rabbits [2]; Sample 1 (day -1)): 20 pg
- MCHC (New Zealand rabbits [2]; Sample 1 (day -1)): 28 g/dL
- MCV (New Zealand rabbits [2]; Sample 1 (day -1)): 71 fL
- Red Cells (New Zealand rabbits [2]; Sample 1 (day -1)): 5.7 × 10^6/mm^3
- White Blood Cells (New Zealand rabbits [2]; Sample 1 (day -1)): 6720 /mm
- Hematocrit (New Zealand rabbits [2]; Sample 2 (day 1)): 37%
- MCH (New Zealand rabbits [2]; Sample 2 (day 1)): 20 pg
- MCHC (New Zealand rabbits [2]; Sample 2 (day 1)): 28 g/dL
- MCV (New Zealand rabbits [2]; Sample 2 (day 1)): 71 fL
- Red Cells (New Zealand rabbits [2]; Sample 2 (day 1)): 5.2 × 10^6/mm^3
- White Blood Cells (New Zealand rabbits [2]; Sample 2 (day 1)): 6175 /mm
- Hematocrit (New Zealand rabbits [2]; Sample 3 (day 6)): 37%
- MCH (New Zealand rabbits [2]; Sample 3 (day 6)): 20 pg
- MCHC (New Zealand rabbits [2]; Sample 3 (day 6)): 28 g/dL
- MCV (New Zealand rabbits [2]; Sample 3 (day 6)): 70 fL
- Red Cells (New Zealand rabbits [2]; Sample 3 (day 6)): 5.2 × 10^6/mm^3
- White Blood Cells (New Zealand rabbits [2]; Sample 3 (day 6)): 3800 /mm
- Hematocrit (New Zealand rabbits [2]; Sample 4 (day 8)): 39%
- MCH (New Zealand rabbits [2]; Sample 4 (day 8)): 19 pg
- MCHC (New Zealand rabbits [2]; Sample 4 (day 8)): 25 g/dL
- MCV (New Zealand rabbits [2]; Sample 4 (day 8)): 69 fL
- Red Cells (New Zealand rabbits [2]; Sample 4 (day 8)): 5.6 × 10^6/mm^3
- White Blood Cells (New Zealand rabbits [2]; Sample 4 (day 8)): 3500 /mm
- Hematocrit (New Zealand rabbits [2]; Sample 5 (day 13)): 24%
- MCH (New Zealand rabbits [2]; Sample 5 (day 13)): 19 pg
- MCHC (New Zealand rabbits [2]; Sample 5 (day 13)): 28 g/dL
- MCV (New Zealand rabbits [2]; Sample 5 (day 13)): 69 fL
- Red Cells (New Zealand rabbits [2]; Sample 5 (day 13)): 3.9 × 10^6/mm^3
- White Blood Cells (New Zealand rabbits [2]; Sample 5 (day 13)): 4000 /mm
- Hematocrit (New Zealand rabbits [2]; Sample 6 (day 15)): 31%
- MCH (New Zealand rabbits [2]; Sample 6 (day 15)): 20 pg
- MCHC (New Zealand rabbits [2]; Sample 6 (day 15)): 29 g/dL
- MCV (New Zealand rabbits [2]; Sample 6 (day 15)): 70 fL
- Red Cells (New Zealand rabbits [2]; Sample 6 (day 15)): 4.4 × 10^6/mm^3
- White Blood Cells (New Zealand rabbits [2]; Sample 6 (day 15)): 5500 /mm
- Hematocrit (New Zealand rabbits [2]; Sample 7 (day 20)): 19%
- MCH (New Zealand rabbits [2]; Sample 7 (day 20)): 20 pg
- MCHC (New Zealand rabbits [2]; Sample 7 (day 20)): 44 g/dL
- MCV (New Zealand rabbits [2]; Sample 7 (day 20)): 45 fL
- Red Cells (New Zealand rabbits [2]; Sample 7 (day 20)): 4.2 × 10^6/mm^3
- White Blood Cells (New Zealand rabbits [2]; Sample 7 (day 20)): 2900 /mm
- IC50 ([3]; Homo sapiens, Epithelial cell, 48 h, Normal Serum, 48 hours, read-out: IC50 in PC3, individual tests): 3.5 nM
- IC50 ([3]; Homo sapiens, Epithelial cell, LP-FREE SERUM, Table 18, read-out: IC50 PC3): 30 nM
- IC50 ([3]; Homo sapiens, Epithelial cell, NORMAL SERUM, Table 18, read-out: IC50 PC3): 4 nM
- IC50 ([3]; Homo sapiens, Epithelial cell, Normal Serum, average of tests, read-out: IC50 in PC3): 3.5 ± 0.1 nM
- IC50 ([3]; Homo sapiens, Epithelial cell, Serum Free of Lipoprotein, average of tests, read-out: IC50 in PC3): 30.2 ± 6.3 nM
- IC50 ([3]; Homo sapiens, Epithelial cell, prostate cancer cell cultures, without lipoproteins, read-out: IC50): 30 nM
- Si PC3 ([3]; LP-FREE SERUM, SI=IC50 (Vero)/IC50 (PC3)): 4
- IC50 ([3]; Normal Serum, 48 hours, listed as DCX, read-out: IC50 in PC3, individual tests): 3.9 nM and 3.3 nM and 3.4 nM
- IC50 ([3]; Serum Free of Lipoprotein, 48 hours, listed as DCX, read-out: IC50 in PC3, individual tests): 37.5 nM and 34.5 nM and 39 nM and 10 nM
- times more toxic in the presence of lipoproteins ([3]; prostate cancer cell cultures): 7.5 times
- GGT concentration in plasma (New Zealand rabbits [4]): No significant differences
- GOT concentration in plasma (New Zealand rabbits [4]): O significant differences
- signs after day 12 (rabbits; rabbit, in vivo, 3.2 mg/kg): anorexia and adipsia
- dead animals after the first cycle of inoculation (rabbits; rabbits, 3.2 mg/kg Docetaxel): dead animals were found
- dead animals after the second cycle of inoculation (rabbits; rabbits, 3.2 mg/kg Docetaxel): dead animals were found
- mortality / lethality (rabbits; rabbits, 3.2 mg/kg Docetaxel (4 ml/kg), three cycles): 80%
- incidence of reactions of unpredictable acute toxicity [5]: 5-60%
- IC50 ([6]; Normal Serum, 48 hours, listed as DCX, read-out: IC50 in VERO, individual tests): 145 nM and 140 nM and 150 nM
- IC50 ([6]; Primates, Vero, 48 h, Normal Serum, 48 hours, read-out: IC50 in VERO, individual tests): 136 nM
- IC50 ([6]; Primates, Vero, 48 h, Serum Free of Lipoprotein, 48 hours, read-out: IC50 in VERO, individual tests): 138 nM
- IC50 ([6]; Primates, Vero, LP-FREE SERUM, Table 18, read-out: IC50 Normal Cell (Vero)): 129 nM
- IC50 ([6]; Primates, Vero, NORMAL SERUM, Table 18, read-out: IC50 Normal Cell (Vero)): 143 nM
- IC50 ([6]; Primates, Vero, Normal Serum, average of tests, read-out: IC50 in VERO): 143 ± 2.9 nM
- IC50 ([6]; Primates, Vero, Serum Free of Lipoprotein, average of tests, read-out: IC50 in VERO): 129 ± 8.06 nM
- IC50 ([6]; Serum Free of Lipoprotein, 48 hours, listed as DCX, read-out: IC50 in VERO, individual tests): 106 nM (2×) and 140 nM and 153 nM and 152 nM and 111 nM
